Key:
[1] = molecular target: T1, GST-Chk1 (recombinant human Chk1) (Homo sapiens, UniProt O14757); experiment: Chk1 FlashPlate kinase assay; assay type: biochemical; details: 1 uM ATP
T1 construct: made in house; host or cells: insect cells (Bac-to-Bac baculovirus system)
T1 sequence (O14757 1-476): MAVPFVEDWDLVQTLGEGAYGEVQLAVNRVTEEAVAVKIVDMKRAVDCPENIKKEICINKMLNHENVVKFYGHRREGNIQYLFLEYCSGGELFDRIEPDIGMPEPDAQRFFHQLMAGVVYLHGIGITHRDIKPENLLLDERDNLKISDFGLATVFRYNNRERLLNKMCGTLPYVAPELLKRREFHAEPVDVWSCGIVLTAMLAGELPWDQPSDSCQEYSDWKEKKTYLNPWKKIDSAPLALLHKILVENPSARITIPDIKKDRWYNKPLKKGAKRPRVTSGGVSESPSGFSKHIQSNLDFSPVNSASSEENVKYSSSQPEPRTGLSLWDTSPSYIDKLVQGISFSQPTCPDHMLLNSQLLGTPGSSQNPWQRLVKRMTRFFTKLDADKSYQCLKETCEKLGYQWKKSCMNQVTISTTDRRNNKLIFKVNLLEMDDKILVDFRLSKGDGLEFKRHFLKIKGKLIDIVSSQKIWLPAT
Protocol: Recombinant human Chk1 was expressed as a fusion protein with glutathione S-transferase at the amino-terminus (GST-Chk1) using standard baculovirus vectors and (Bac-to-Bac®) insect cell expression system purchased from GIBCO™ Invitrogen. Recombinant protein expressed in insect cells was purified using glutathione sepharose (Amersham Biotech) using standard procedures described by the manufacturer.
Chk1 FlashPlate® Kinase Assay:
Reactions were incubated for 30 minutes at room temperature, terminated with 50 ul of 50 mM EDTA and 90 ul were transferred to streptavidin-coated FlashPlates® (NEN) and incubated for 1 hour at room temperature. Plates were washed with phosphate buffered salaine containing 0.01% Tween-20 and 10 mM sodium pyrophosphate. Plates were dried, sealed with Topseal™ (NEN) and amount of ^33P incorporated into the peptide substate measure using a Packard Topcount® NXT™ scintillation counter with standard settings.
Compounds of the present invention were tested in the Chk1 FlashPlate® kinase assay described above.

CHK-1 = molecular target: T2, CHK-1 (Homo sapiens, UniProt O14757); experiment: IC50 for the test compound versus CHK-1 (Table 2, assay format not stated); assay type: biochemical
T2 sequence (O14757 1-476): T1 sequence (O14757 1-476)

[2] = test system: HT29, HCT116 or other cells; experiment: WST assay: enhancement of cell killing by DNA damaging agents; assay type: cell-based; details: shift of 1 = no shift
Protocol: HT29, HCT116 (5000 cells/well) or other cells were seeded (75 ul) to 96 well clear bottom plates at densities which provide linear growth curves for 72 hours. Cells were cultured under sterile conditions in appropriate media and for HT29 & HCT116 this media was McCoy's 5A containing 10% Fetal Bovine Serum (FBS). Following the initial seeding of cells they are incubated at 37° C., 5% CO2 from 17 to 24 hours at which time the appropriate DNA damaging agents (camptothecins, 5-fluorouracil and etoposid) are added at increasing concentrations to a point which is capable of causing at least 80% cell killing with in 48 hours. Final volume of all DNA damaging agent & compound additions was 25 ul and assays contained <1% DMSO final. At the same time as DNA Damaging agent addition, Chk1 inhibitor was added at fixed concentrations to each DNA damaging agent titration to observe enhancement of cell killing. In addition, toxicity of each Chk1 inhibitor alone was observed. By doing this over a range of Chk1 inhibitor concentrations we were able to identify compounds which maximally enhance (2–30 fold) cell killing by each DNA damaging agent and generated ≦80% cell killing by the compound alone. Cell viability/cell killing under the conditions described above was determined by addition WST reagent (Roche) according to the manufacturer at 47 hours following DNA damage & Chk1 inhibitor addition and following a 3.5 hour or 2.5 hour incubation at 37 C, 5% CO2, OD450 was measured.

CN(C)CCOc1ccc(Cl)cc1NC(=O)Nc1cnccn1 [Example 2, 1-[5-Chloro-2-(2-dimethylamino-ethoxy)-phenyl]-3-pyrazin-2-yl-urea]
IC50 [1]: < 100 nM
IC50 (CHK-1): 8 nM
Shift 156 nM ([2]; Chk1 inhibitor fixed at 156 nM with DNA damaging agent titration): 1
Shift 313 nM ([2]; Chk1 inhibitor fixed at 313 nM with DNA damaging agent titration): 1.1
Shift 625 nM ([2]; Chk1 inhibitor fixed at 625 nM with DNA damaging agent titration): 1.5
Shift 1.25 μM ([2]; Chk1 inhibitor fixed at 1.25 μM with DNA damaging agent titration): 1.9
Shift 2.5 μM ([2]; Chk1 inhibitor fixed at 2.5 μM with DNA damaging agent titration): 2.6

Reference: patent US7202244B2, “Chk-1 inhibitors” (Millennium Pharmaceuticals, Inc., priority 2002, dated 2007)
